Values quoted from earlier work in patent US20220031669A1, “Compositions for Broad Spectrum Topical Antimicrobials” (priority 2020, published 2022).

Settings: thiol group of acetylcysteine

- pKa of SH: 9.4
Structure (SMILES): CC(=O)N[C@@H](CS)C(=O)O [acetylcysteine]
